Measurements reported in patent publication US8192962B2, “Processes for detecting toxic substances” (Daikin Industries, Ltd., priority 2001, dated 2012).

Test system: Unknown protein yeast genes
Test: DNA chip mRNA expression in yeast, unknown protein yeast genes (Table 1)
Assay type: cell-based, Saccharomyces cerevisiae S288C
Summary of the method: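 Ratios compare mRNA levels in stressed and control S. cerevisiae. Each toxicant was applied for two hours to log-phase cultures at 25° C. at a sub-lethal, growth-inhibiting level; fluorescent cDNA (Cy3- or Cy5-dUTP) was hybridized to a genome-wide yeast chip for over 12 h at 65° C.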

C=CC=O [(14), acrolein]
The level of expressed mRNA in the presence of chemical substance/The level of expressed mRNA in the absence of chemical substance (yeast gene YAL053W, incubated two hours with chemical substance): 0.7 | The level of expressed mRNA in the presence of chemical substance/The level of expressed mRNA in the absence of chemical substance (yeast gene YBL048W): 2.0 | The level of expressed mRNA in the presence of chemical substance/The level of expressed mRNA in the absence of chemical substance (yeast gene YBL107C): 2.5 | The level of expressed mRNA in the presence of chemical substance/The level of expressed mRNA in the absence of chemical substance (yeast gene YDL072C, incubated two hours with chemical substance): 1.8 | The level of expressed mRNA in the presence of chemical substance/The level of expressed mRNA in the absence of chemical substance (yeast gene YDL204W, incubated two hours with chemical substance): 2.4 | The level of expressed mRNA in the presence of chemical substance/The level of expressed mRNA in the absence of chemical substance (yeast gene YDL222C, incubated two hours with chemical substance): 1.3 | The level of expressed mRNA in the presence of chemical substance/The level of expressed mRNA in the absence of chemical substance (yeast gene YDR330W, incubated two hours with chemical substance): 1.1 | The level of expressed mRNA in the presence of chemical substance/The level of expressed mRNA in the absence of chemical substance (yeast gene YDR411C, incubated two hours with chemical substance): 0.8 | The level of expressed mRNA in the presence of chemical substance/The level of expressed mRNA in the absence of chemical substance (yeast gene YDR511W, incubated two hours with chemical substance): 2.2 | The level of expressed mRNA in the presence of chemical substance/The level of expressed mRNA in the absence of chemical substance (yeast gene YDR545W, incubated two hours with chemical substance): 0.7 | The level of expressed mRNA in the presence of chemical substance/The level of expressed mRNA in the absence of chemical substance (yeast gene YEL001C, incubated two hours with chemical substance): 1.3 | The level of expressed mRNA in the presence of chemical substance/The level of expressed mRNA in the absence of chemical substance (yeast gene YER004W, incubated two hours with chemical substance): 1.8 | The level of expressed mRNA in the presence of chemical substance/The level of expressed mRNA in the absence of chemical substance (yeast gene YER035W, incubated two hours with chemical substance): 1.0 | The level of expressed mRNA in the presence of chemical substance/The level of expressed mRNA in the absence of chemical substance (yeast gene YER079W, incubated two hours with chemical substance): 1.6 | The level of expressed mRNA in the presence of chemical substance/The level of expressed mRNA in the absence of chemical substance (yeast gene YER106W, incubated two hours with chemical substance): 1.5 | The level of expressed mRNA in the presence of chemical substance/The level of expressed mRNA in the absence of chemical substance (yeast gene YER158C, incubated two hours with chemical substance): 0.9 | The level of expressed mRNA in the presence of chemical substance/The level of expressed mRNA in the absence of chemical substance (yeast gene YER163C, incubated two hours with chemical substance): 1.9 | The level of expressed mRNA in the presence of chemical substance/The level of expressed mRNA in the absence of chemical substance (yeast gene YER175C, incubated two hours with chemical substance): 1.1 | The level of expressed mRNA in the presence of chemical substance/The level of expressed mRNA in the absence of chemical substance (yeast gene YFL006W, incubated two hours with chemical substance): 1.7 | The level of expressed mRNA in the presence of chemical substance/The level of expressed mRNA in the absence of chemical substance (yeast gene YFL010C, incubated two hours with chemical substance): 1.4 | The level of expressed mRNA in the presence of chemical substance/The level of expressed mRNA in the absence of chemical substance (yeast gene YFL024C): 3.3 | The level of expressed mRNA in the presence of chemical substance/The level of expressed mRNA in the absence of chemical substance (yeast gene YFL032W, incubated two hours with chemical substance): 0.6 | The level of expressed mRNA in the presence of chemical substance/The level of expressed mRNA in the absence of chemical substance (yeast gene YGL037C, incubated two hours with chemical substance): 1.0 | The level of expressed mRNA in the presence of chemical substance/The level of expressed mRNA in the absence of chemical substance (yeast gene YGL047W, incubated two hours with chemical substance): 2.3 | The level of expressed mRNA in the presence of chemical substance/The level of expressed mRNA in the absence of chemical substance (yeast gene YGL053W, incubated two hours with chemical substance): 1.1 | The level of expressed mRNA in the presence of chemical substance/The level of expressed mRNA in the absence of chemical substance (yeast gene YGL121C): 5.8 | The level of expressed mRNA in the presence of chemical substance/The level of expressed mRNA in the absence of chemical substance (yeast gene YGL199C, incubated two hours with chemical substance): 0.8 | The level of expressed mRNA in the presence of chemical substance/The level of expressed mRNA in the absence of chemical substance (yeast gene YGR101W, incubated two hours with chemical substance): 0.9 | The level of expressed mRNA in the presence of chemical substance/The level of expressed mRNA in the absence of chemical substance (yeast gene YGR110W): 2.8 | The level of expressed mRNA in the presence of chemical substance/The level of expressed mRNA in the absence of chemical substance (yeast gene YGR130C, incubated two hours with chemical substance): 0.9 | The level of expressed mRNA in the presence of chemical substance/The level of expressed mRNA in the absence of chemical substance (yeast gene YGR154C, incubated two hours with chemical substance): 2.2 | The level of expressed mRNA in the presence of chemical substance/The level of expressed mRNA in the absence of chemical substance (yeast gene YGR221C, incubated two hours with chemical substance): 1.4 | The level of expressed mRNA in the presence of chemical substance/The level of expressed mRNA in the absence of chemical substance (yeast gene YHR138C, incubated two hours with chemical substance): 3.4 | The level of expressed mRNA in the presence of chemical substance/The level of expressed mRNA in the absence of chemical substance (yeast gene YHR199C, incubated two hours with chemical substance): 2.0 | The level of expressed mRNA in the presence of chemical substance/The level of expressed mRNA in the absence of chemical substance (yeast gene YIL023C, incubated two hours with chemical substance): 0.7 | The level of expressed mRNA in the presence of chemical substance/The level of expressed mRNA in the absence of chemical substance (yeast gene YIL041W, incubated two hours with chemical substance): 1.3 | The level of expressed mRNA in the presence of chemical substance/The level of expressed mRNA in the absence of chemical substance (yeast gene YIL087C, incubated two hours with chemical substance): 1.3 | The level of expressed mRNA in the presence of chemical substance/The level of expressed mRNA in the absence of chemical substance (yeast gene YJL057C, incubated two hours with chemical substance): 1.6 | The level of expressed mRNA in the presence of chemical substance/The level of expressed mRNA in the absence of chemical substance (yeast gene YJL066C, incubated two hours with chemical substance): 1.0 | The level of expressed mRNA in the presence of chemical substance/The level of expressed mRNA in the absence of chemical substance (yeast gene YJL082W, incubated two hours with chemical substance): 0.5 | The level of expressed mRNA in the presence of chemical substance/The level of expressed mRNA in the absence of chemical substance (yeast gene YJL151C, incubated two hours with chemical substance): 1.3 | The level of expressed mRNA in the presence of chemical substance/The level of expressed mRNA in the absence of chemical substance (yeast gene YJL152W, incubated two hours with chemical substance): 1.4 | The level of expressed mRNA in the presence of chemical substance/The level of expressed mRNA in the absence of chemical substance (yeast gene YJL161W, incubated two hours with chemical substance): 2.2 | The level of expressed mRNA in the presence of chemical substance/The level of expressed mRNA in the absence of chemical substance (yeast gene YJL171C, incubated two hours with chemical substance): 1.0 | The level of expressed mRNA in the presence of chemical substance/The level of expressed mRNA in the absence of chemical substance (yeast gene YJR008W, incubated two hours with chemical substance): 1.2 | The level of expressed mRNA in the presence of chemical substance/The level of expressed mRNA in the absence of chemical substance (yeast gene YJR054W, incubated two hours with chemical substance): 1.2 | The level of expressed mRNA in the presence of chemical substance/The level of expressed mRNA in the absence of chemical substance (yeast gene YKL071W): 21.9 | The level of expressed mRNA in the presence of chemical substance/The level of expressed mRNA in the absence of chemical substance (yeast gene YKL086W, incubated two hours with chemical substance): 2.9 | The level of expressed mRNA in the presence of chemical substance/The level of expressed mRNA in the absence of chemical substance (yeast gene YKL107W): 3.4 | The level of expressed mRNA in the presence of chemical substance/The level of expressed mRNA in the absence of chemical substance (yeast gene YKL151C, incubated two hours with chemical substance): 1.3 | The level of expressed mRNA in the presence of chemical substance/The level of expressed mRNA in the absence of chemical substance (yeast gene YKL153W, incubated two hours with chemical substance): 1.1
